The text below walks through data of US20030206932A1, “Novel topical compositions” (priority 1994, published 2003).

The nature of the data set: Solubility parameter δ estimated from tabulated molecular substituent constants (Fedors). Conditions: difference to the solubility parameter of retinol. The source says: Solubility attributes of two or more materials with respect to each other are generally reflected in the “solubility parameter”, δ, which is expressed in the units (cal/cm^3)^1/2.
The value of the solubility parameter can be estimated from tabulated molecular substituent constants such as those described by Fedors. These substituent constants can be found in Solubility and Related Properties by Kenneth C. […] Generally, according to Textbook of Polymer Science, 2nd Ed., Billmeyer, solubility can be expected if the difference of the solubility parameters of two materials is less than about 2 units.
Regarding `CC1CC(OC(=O)c2ccccc2O)CC(C)(C)C1` (stereo not drawn) [Homomenthyl Salicylate], the “δN − δRETINOL” value is on record as 1.14 (cal/cm^3)^1/2.
`CC1CCC(C(C)C)C(OC(=O)c2ccccc2N)C1` (stereo not drawn) [Menthyl Anthranilate]: the “δN − δRETINOL” value is listed as 0.13 (cal/cm^3)^1/2.
Consider `CCCCC(CC)COC(=O)C(C#N)=C(c1ccccc1)c1ccccc1` (stereo not drawn) [Octocrylene], for which the “δN − δRETINOL” value was 0.74 (cal/cm^3)^1/2.
Turning to `CCCCC(CC)COC(=O)c1ccc(N(C)C)cc1` (stereo not drawn) [Octyl Dimethyl PABA], the “δN − δRETINOL” value is −0.33 (cal/cm^3)^1/2.
In the case of `CCCCC(CC)COC(=O)C=Cc1ccc(OC)cc1` (stereo not drawn) [Octyl Methoxy Cinnamate], the “δN − δRETINOL” value is listed as −0.29 (cal/cm^3)^1/2.
Consider DEA Methoxysalicylate, for which the “δN − δRETINOL” value is 2.94 (cal/cm^3)^1/2.
